Test results from patent US11427869B2, “T cell balance gene expression, compositions of matters and methods of use thereof” (THE BROAD INSTITUTE, INC., priority 2015, dated 2022).

Tests used:
Th17 cells = test: Flow cytometry and intracellular cytokine staining of T cells; type: cell-based, mouse
Method: WT, CD5L−/− and Rorγt−/− Th17 cells were differentiated with TGF-1+IL-6 for 96h. […] Three independent experiments were performed. […] (FIG. 18E) Naïve WT T cells were activated without polarizing cytokines (Th0) and infected with retrovirus expressing Rorγt in the presence of control-RV or CD5L-RV with or without FF-MAS (5 uM) as a source of Rorγt ligand. Each dot represents an independent infection. (FIG. 18F) WT or CD5L−/− naïve cells were differentiated with TGF-β1+IL-6. At 48h, cells were replated in fresh media with either control or FF-MAS (5 uM) as a source of Rorγt ligand. Cells were harvested for FACS analysis 72h later.
T cell differentiation culture. Naïve CD4+CD44−CD62L+CD25− T cells or Effector memory CD4+CD44+CD62L− were sorted using BD FACSAria sorter and activated with plate-bound anti-CD3 and anti-CD28 antibodies (both at 2 μg/ml) in the presence of cytokines at a concentration of 2.5×10^5 cells/ml. For Th17 differentiation: 2 ng/ml of rhTGFβ1, 2 ng/ml of rhTGFβ3, 25 ng/ml rmIL-6, 20 ng/ml rmIL-18 (all from Miltenyi Biotec) and 20 ng/ml rmIL-23 (R & D systems) were used at various combinations as specified in figures. For Th1 differentiation, 20 ng/ml rmIL-12 (R & D systems); for Th2 differentiation 20 ng/ml rmIL-4 (Miltenyi Biotec); for iTreg differentiation, 2.5 ng/ml of rhTGFβ1 were used (Miltenyi Biotec). For differentiation experiments, cells were harvested at 48 hours. For restimulation experiments, cells were differentiated for 48 hours and resuspended in fresh media with no additional cytokines for 48-72 hours. Cells were re-stimulated with PMA/ionomycin for four hours before analysis for cytokines by intracellular cytokine staining. For experiments with exogenous fatty acid, fatty acids were purchased and resuspended first with serum-free media containing BSA prior being added to culture.
Flow cytometry and intracellular cytokine staining. Sorted naïve T cells were stimulated with phorbol 12-myristate 13-acetate (PMA) (50 ng/ml, Sigma-aldrich), ionomycin (1 μg/ml, Sigma-aldrich) and a protein transport inhibitor containing monensin (Golgistop) (BD Biosciences) for 4 h before detection by staining with antibodies.

Rorγt = biological target: T1, Rorγt (Mus musculus, UniProt P51450); test: Dual luciferase reporter assay of Rorγt transcriptional activity in EL4 cells; type: cell-based; settings: in the presence of an agonistic Rorγt ligand
T1 construct: expressed in transfected cells; host or cells: EL4 cells stably transfected with Rorγt vector
T1 sequence (P51450 1-495 isoform P51450-2): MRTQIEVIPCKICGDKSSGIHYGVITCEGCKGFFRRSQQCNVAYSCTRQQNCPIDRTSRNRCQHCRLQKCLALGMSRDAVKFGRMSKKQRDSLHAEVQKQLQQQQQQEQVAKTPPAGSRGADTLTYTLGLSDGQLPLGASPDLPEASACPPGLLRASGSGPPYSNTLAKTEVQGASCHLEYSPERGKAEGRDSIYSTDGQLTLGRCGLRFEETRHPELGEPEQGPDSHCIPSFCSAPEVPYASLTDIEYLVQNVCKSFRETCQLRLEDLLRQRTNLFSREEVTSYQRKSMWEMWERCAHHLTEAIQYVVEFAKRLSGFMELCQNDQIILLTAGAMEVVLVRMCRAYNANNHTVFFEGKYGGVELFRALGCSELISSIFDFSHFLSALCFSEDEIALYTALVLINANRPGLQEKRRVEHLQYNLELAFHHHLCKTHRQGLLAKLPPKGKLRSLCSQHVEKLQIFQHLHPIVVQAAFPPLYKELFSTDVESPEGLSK
Method: Cells and supernatant were harvested at 96 hours and subjected to MS/LC. Three independent mouse experiments were performed. […] All ChIP and luciferase assay are representative of at least 3 independent experiments.
Three independent experiments were performed.

Il10 transactivation (Rorγt): enhanced Il10 transactivation
Structure (SMILES): CCCCC/C=C\C/C=C\C/C=C\C/C=C\CCCC(=O)O [PUFA, arachidonic acid]
percentage of IL-17+CD4+ T cells (Th17 cells; CD5L−/− Th17 cells differentiated with TGF-β1+IL-6): reduced percentage of IL-17+CD4+ T cells | IL-17 and IL-23R expression (Th17 cells; WT Th17 cells differentiated with TGF-β1+IL-6 and expanded using IL-23 with fatty acid): suppressed IL-17 and IL-23R expression | Rorγt-mediated Il23r transactivation (Rorγt): inhibited Rorγt-mediated Il23r transactivation
